# Results as given in ChEMBL document CHEMBL3352062, “Synthesis and biological evaluation of bile carboxamide derivatives with pro-apoptotic effect on human colon adenocarcinoma cell lines” (Eur J Med Chem, 2014).
# Calls of active or inactive are those of the source. The calls are words filed in the database; no cut-off is given here.
# Assays:
# HT-29 [1] = experiment: Antiproliferative activity against human HT-29 cells assessed as reduction in cell viability after 24 to 48 hrs by XTT assay; format: functional, cell-based
# HCT-116 [2] = experiment: Antiproliferative activity against human HCT116 cells assessed as reduction in cell viability after 24 to 48 hrs by XTT assay; format: functional, cell-based
# DLD-1 [3] = experiment: Antiproliferative activity against human DLD1 cells assessed as reduction in cell viability after 24 to 48 hrs by XTT assay; format: functional, cell-based
# DLD-1 [4] = experiment: Induction of apoptosis in human DLD1 cells assessed as APO2.7-positive cells at 30 uM after 24 hrs using propidium iodide by flow cytometry (reference value: 1.01 %); format: functional
# HCT-116 [5] = experiment: Induction of apoptosis in human HCT116 cells assessed as APO2.7-positive cells at 30 uM after 24 hrs using propidium iodide by flow cytometry (reference value: 1.19 %); format: functional
# HT-29 [6] = experiment: Antiproliferative activity against human HT-29 cells assessed as reduction in cell viability after 24 hrs by XTT assay; format: functional, cell-based; settings: HT-29, 24 h
# HT-29 [7] = experiment: Cell cycle arrest in human HT-29 cells assessed as accumulation at G2-M phase at 30 uM after 24 hrs using propidium iodide by flow cytometry (reference value: 21.66 %); format: functional
# HT-29 [8] = experiment: Cell cycle arrest in human HT-29 cells assessed as accumulation at G0-G1 phase at 30 uM after 24 hrs using propidium iodide by flow cytometry (reference value: 43.78 %); format: functional
# [9] = Cell cycle arrest in human HCT116 cells assessed as accumulation at G2-M phase at 30 uM after 24 hrs using propidium iodide by flow cytometry (reference value: 33.69 %); format: functional, cell-based; settings: HCT-116
# [10] = Cell cycle arrest in human DLD1 cells assessed as accumulation at S phase at 30 uM after 24 hrs using propidium iodide by flow cytometry (reference value: 21.08 %); format: functional, cell-based; settings: DLD-1
# [11] = Antiproliferative activity against human DLD1 cells assessed as reduction in cell viability after 24 hrs by XTT assay; format: functional, cell-based; settings: DLD-1, 24 h
# HT-29 [12] = experiment: Induction of apoptosis in human HT-29 cells assessed as APO2.7-positive cells at 30 uM after 24 hrs using propidium iodide by flow cytometry (reference value: 1.11 %); format: functional
# DLD-1 [13] = experiment: Induction of apoptosis in human DLD1 cells assessed as PARP cleavage at 30 uM after 24 hrs using propidium iodide by Western blot analysis; format: functional, cell-based
# [14] = Cell cycle arrest in human HCT116 cells assessed as accumulation at S phase at 30 uM after 24 hrs using propidium iodide by flow cytometry (reference value: 18.80 %); format: functional, cell-based; settings: HCT-116
# [15] = Cell cycle arrest in human DLD1 cells assessed as accumulation at G2-M phase at 30 uM after 24 hrs using propidium iodide by flow cytometry (reference value: 39.85 %); format: functional, cell-based; settings: DLD-1
# HT-29 [16] = experiment: Induction of apoptosis in human HT-29 cells assessed as PARP cleavage at 30 uM after 24 hrs using propidium iodide by Western blot analysis; format: functional, cell-based
# HT-29 [17] = experiment: Cell cycle arrest in human HT-29 cells assessed as accumulation at S phase at 30 uM after 24 hrs using propidium iodide by flow cytometry (reference value: 28.28 %); format: functional
# [18] = Cell cycle arrest in human DLD1 cells assessed as accumulation at sub-G1 phase at 30 uM after 24 hrs using propidium iodide by flow cytometry (reference value: 1.73 %); format: functional, cell-based; settings: DLD-1
# [19] = Antiproliferative activity against human HCT116 cells assessed as reduction in cell viability after 24 hrs by XTT assay; format: functional, cell-based; settings: HCT-116, 24 h
# [20] = Cell cycle arrest in human HCT116 cells assessed as accumulation at sub-G1 phase at 30 uM after 24 hrs using propidium iodide by flow cytometry (reference value: 1.78 %); format: functional, cell-based; settings: HCT-116
# [21] = Cell cycle arrest in human DLD1 cells assessed as accumulation at G0-G1 phase at 30 uM after 24 hrs using propidium iodide by flow cytometry (reference value: 35.37 %); format: functional, cell-based; settings: DLD-1
# [22] = Cell cycle arrest in human HCT116 cells assessed as accumulation at G0-G1 phase at 30 uM after 24 hrs using propidium iodide by flow cytometry (reference value: 42.61 %); format: functional, cell-based; settings: HCT-116
# HT-29 [23] = experiment: Cell cycle arrest in human HT-29 cells assessed as accumulation at sub-G1 phase at 30 uM after 24 hrs using propidium iodide by flow cytometry (reference value: 3.18 %); format: functional
# HCT-116 [24] = experiment: Induction of apoptosis in human HCT116 cells assessed as PARP cleavage at 30 uM after 24 hrs using propidium iodide by Western blot analysis; format: functional, cell-based
IC50 (HT-29 [6]) [µM],SMILES,Activity (HT-29 [1]),Activity (HCT-116 [2]),Activity (DLD-1 [3]),Activity (DLD-1 [4]) [%],Activity (HCT-116 [5]) [%],Activity (HT-29 [7]) [%],Activity (HT-29 [8]) [%],Activity [9] [%],Activity [10] [%],IC50 [11] [µM],Activity (HT-29 [12]) [%],Activity (DLD-1 [13]),Activity [14] [%],Activity [15] [%],Activity (HT-29 [16]),Activity (HT-29 [17]) [%],Activity [18] [%],IC50 [19] [µM],Activity [20] [%],other results
–,C[C@H](CCC(=O)N1CCN(C(c2ccccc2)c2ccc(Cl)cc2)CC1)[C@H]1CC[C@H]2[C@@H]3CC[C@@H]4C[C@H](O)CC[C@]4(C)[C@H]3C[C@H](O)[C@]12C (stereo not given in full),Dose-dependent effect,Dose-dependent effect,Dose-dependent effect,–,–,–,–,–,–,–,–,–,–,–,–,–,–,–,–,–
36,C[C@H](CCC(=O)N1CCN(Cc2ccccc2)CC1)[C@H]1CC[C@H]2[C@@H]3[C@H](O)C[C@@H]4C[C@H](O)CC[C@]4(C)[C@H]3CC[C@]12C,–,–,–,22.54,20.33,13.63,49.08,26.6,14.1,33,8.57,Active,17.8,32.2,Active,17.11,10.7,23,13,Activity [21]: 40%; Activity [22]: 36.9%; Activity (HT-29 [23]): 18.13%; Activity (HCT-116 [24]): Active
–,C[C@H](CCC(=O)N1CCN(Cc2ccccc2)CC1)[C@H]1CC[C@H]2[C@@H]3CC[C@@H]4C[C@H](O)CC[C@]4(C)[C@H]3CC[C@]12C,Dose-dependent effect,Dose-dependent effect,Dose-dependent effect,–,–,–,–,–,–,–,–,–,–,–,–,–,–,–,–,–
–,C[C@H](CCC(=O)N1CCN(C(c2ccccc2)c2ccc(Cl)cc2)CC1)[C@H]1CC[C@H]2[C@@H]3[C@@H](O)C[C@@H]4C[C@H](O)CC[C@]4(C)[C@H]3CC[C@]12C (stereo not given in full),Dose-dependent effect,Dose-dependent effect,Dose-dependent effect,–,–,–,–,–,–,–,–,–,–,–,–,–,–,–,–,–
35,C[C@H](CCC(=O)N1CCN(C/C=C/c2ccccc2)CC1)[C@H]1CC[C@H]2[C@@H]3[C@H](O)C[C@@H]4C[C@H](O)CC[C@]4(C)[C@H]3CC[C@]12C,–,–,–,34.87,37.73,4.77,28.49,11.3,18.8,36,8.79,Active,22.5,6.22,Active,18.65,49.8,34,31.2,Activity [21]: 24%; Activity [22]: 33%; Activity (HT-29 [23]): 48.38%; Activity (HCT-116 [24]): Active
–,C[C@H](CCC(=O)N1CCN(C(c2ccc(F)cc2)c2ccc(F)cc2)CC1)[C@H]1CC[C@H]2[C@@H]3[C@H](O)C[C@@H]4C[C@H](O)CC[C@]4(C)[C@H]3CC[C@]12C,Dose-dependent effect,Dose-dependent effect,Dose-dependent effect,–,–,–,–,–,–,–,–,–,–,–,–,–,–,–,–,–
32,C[C@H](CCC(=O)N1CCN(Cc2ccccc2)CC1)[C@H]1CC[C@H]2[C@@H]3CC[C@@H]4C[C@H](O)CC[C@]4(C)[C@H]3C[C@H](O)[C@]12C,–,–,–,2.49,4.59,11.14,36.89,28.9,15.4,26,1.26,Active,18.4,39,Active,15.67,14.3,22,14.8,Activity [21]: 28.5%; Activity [22]: 33.6%; Activity (HT-29 [23]): 34.81%; Activity (HCT-116 [24]): Active
